Where two headings read alike, the source gives them in different places.
What was measured:
[1] = biological target: T1, Pseudomonas fluorescens aryl esterase (PFE) variant Leu29Pro (parent SEQ ID NO:3) (Pseudomonas fluorescens, UniProt P22862, L30P); experiment: Kinetics of p-nitrophenyl acetate hydrolysis, Leu29Pro PFE; assay type: biochemical; parameters: expressed as in Cheeseman et al. 2004
T1 sequence (P22862 1-272 L30P): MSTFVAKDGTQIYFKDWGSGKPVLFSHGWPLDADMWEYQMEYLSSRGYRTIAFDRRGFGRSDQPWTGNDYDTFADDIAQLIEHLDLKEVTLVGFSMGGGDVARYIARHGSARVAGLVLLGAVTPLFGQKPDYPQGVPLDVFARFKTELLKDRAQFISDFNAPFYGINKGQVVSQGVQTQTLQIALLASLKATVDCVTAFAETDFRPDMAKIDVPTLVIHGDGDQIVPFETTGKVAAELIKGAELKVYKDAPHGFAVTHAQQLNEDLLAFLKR
Procedure: (§1) The p-nitrophenyl acetate (pNPAc) assay contained pNPAc (0.3 mM) and 8% acetonitrile as co-solvent in BES buffer (5 mM, pH 7.2). The reaction was monitored spectrophotometrically at 404 nm (ε=11.4·10 ^3 M^−1 cm^−1). A pH-indicator assay was used to assay substrates without inherent light absorbing properties (Janes et al., 1998, Chem. Eur. J. 4:2324-2331). The reactions were carried out in BES buffer (5 mM, pH 7.2) containing p-nitrophenol. As hydrolysis progresses, protons add to the p-nitrophenolate and the course of reaction can be monitored as a decrease in absorbance at 404 nm (ε=16.5·10^3 M^−1 cm^−1). This provides a good estimate of reaction rates, but is limited to substrates containing only one possible acid-functionality, as several would interfere with the pH indicator.
(§2) Kinetic parameters for hydrolysis of pNPAc in wild-type and Leu29Pro were carried out with pNPAc at 0.1, 0.2, 0.5, 1.0, 2.0, 4.0, and 10 mM under otherwise identical conditions as for the pNPAc-assay. Solubility problems limited higher substrate concentrations than 10 mM. Data points were fitted by non-linear regression using OriginPro 7.5 SR1 v7.5776 (OriginLab Corporation, Northampton, Mass.) with a hyperbola function of basic equation y=P1*x/(P2+x), where x is the substrate concentration (mM), P1 corresponds to Vmax (μmol min^−1 mg^−1 or U/mg), and P2 corresponds to KM (mM). R^2-values for were 0.992 and 0.997 for wild-type and Leu29Pro, respectively.

[2] = biological target: T1, Pseudomonas fluorescens aryl esterase (PFE) variant Leu29Pro (parent SEQ ID NO:3)
Procedure: (§3) Activity assays were performed in quadruplicates on 96-well microtiter plates with a reaction volume of 100 μl (90 μl assay solution to 10 μl enzyme in 5 mM BES pH 7.2). The path-length for light through the well was 0.29 cm.
(§4) The monochlorodimedon (MCD) assay (Hager et al., 1966, J. Biol. Chem., 241:1769-1777) was used to detect peracid formation. Each reaction contained MCD (0.18 mM), H2O2 (90 mM), NaBr (90 mM) in acetate buffer (1 M, pH 5.5) at 25° C. The reaction was followed spectrophotometrically at 290 nm in UV-transparent microtiter plates (ε=19.9×10^3 M^−1 cm^−1).
(§5) An estimate of kinetic parameters was also obtained for hydrogen peroxide in wild-type and Leu29Pro. The hydrogen peroxide in wild-type was 5, 10, 20, 50, 100, and 200 mM; for Leu29Pro, the concentrations were 5, 10, 20, 35, 50, 121, 152, and 200 mM.

[3] = biological target: T2, Pseudomonas fluorescens aryl esterase (PFE), wild-type, SEQ ID NO:3 (Pseudomonas fluorescens, UniProt P22862)
T2 sequence (P22862 1-272): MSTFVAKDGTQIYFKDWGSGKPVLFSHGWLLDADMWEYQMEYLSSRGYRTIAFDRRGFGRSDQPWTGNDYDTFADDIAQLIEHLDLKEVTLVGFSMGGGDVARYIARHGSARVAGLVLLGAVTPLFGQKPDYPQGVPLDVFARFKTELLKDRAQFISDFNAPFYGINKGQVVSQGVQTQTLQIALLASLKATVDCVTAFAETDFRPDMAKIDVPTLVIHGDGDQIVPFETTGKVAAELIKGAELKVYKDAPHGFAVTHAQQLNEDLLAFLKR
Procedure: as §3, §4, §5

[4] = substrate: CC(=O)Oc1ccc([N+](=O)[O-])cc1; experiment: Kinetics of p-nitrophenyl acetate hydrolysis, wild-type PFE; assay type: biochemical, Pseudomonas fluorescens; settings: other: hydrolysis of pNPAc 0.1-10 mM, 5 mM BES pH 7.2, 8% acetonitrile
Procedure: as §1, §2

[5] = substrate: CC(=O)Oc1ccc([N+](=O)[O-])cc1; experiment: Kinetics of p-nitrophenyl acetate hydrolysis, Leu29Pro PFE; assay type: biochemical, Pseudomonas fluorescens; settings: other: hydrolysis of pNPAc 0.1-10 mM, 5 mM BES pH 7.2, 8% acetonitrile
Procedure: as §1, §2

[6] = perhydrolysis, H2O2 5-200 mM, 1 M acetate pH 5.5, 25° C., Leu29Pro
[7] = perhydrolysis, H2O2 5-200 mM, 1 M acetate pH 5.5, 25° C.

Question: How did the “fold decrease in Vmax for hydrolysis of pNPAc” value ([1]; Leu29Pro vs wild-type) turn out when `CC(=O)Oc1ccc([N+](=O)[O-])cc1` [pNPAc, p-nitrophenyl acetate] was run?
Answer: 50 fold

Question: What about the “increase in KM for pNPAc” value ([1]; Leu29Pro vs wild-type) of the same molecule?
Answer: three-fold

Question: And the “fold change in catalytic efficiency (Vmax/KM) for hydrolysis of pNPAc” value ([1]; Leu29Pro vs wild-type (decrease))?
Answer: 165 fold

Question: With `OO` [H2O2, hydrogen peroxide] as the molecule, how does the “fold increase in Vmax for perhydrolysis” value ([2]; Leu29Pro vs wild-type) read?
Answer: 50 fold

Question: And the “fold increase in catalytic efficiency (Vmax/KM) for perhydrolysis of acetic acid” value ([2]; Leu29Pro vs wild-type)?
Answer: 14 fold

Question: And the “increase in Km for hydrogen peroxide” value ([2]; Leu29Pro vs wild-type)?
Answer: three-fold

Question: And the Vmax/KM ([2]; perhydrolysis of acetic acid, H2O2, Leu29Pro)?
Answer: 180 U mg^−1 M^−1

Question: What about the Km [2, 6] of the same molecule?
Answer: 58 mM

Question: What about the Vmax [2, 6] of the same molecule?
Answer: 11 ± 1 U mg^−1

Question: And the Vmax ([2]; perhydrolysis, H2O2 5-200 mM, 1 M acetate pH 5.5, 25° C., Leu29Pro, listed as hydrogen peroxide)?
Answer: 11 U mg^−1

Question: And the Vmax/KM ([3]; perhydrolysis of acetic acid, H2O2)?
Answer: 13 U mg^−1 M^−1

Question: What about the Km [3, 7] of the same molecule?
Answer: 17 mM

Question: And the Vmax [3, 7]?
Answer: 0.22 ± 0.02 U mg^−1

Question: What about the Vmax ([3]; perhydrolysis, H2O2 5-200 mM, 1 M acetate pH 5.5, 25° C., listed as hydrogen peroxide) of the same molecule?
Answer: 0.22 U mg^−1

B1: Pseudomonas fluorescens aryl esterase (PFE), wild-type, SEQ ID NO:3 (Pseudomonas fluorescens) (protein)
chain: MSTFVAKDGTQIYFKDWGSGKPVLFSHGWLLDADMWEYQMEYLSSRGYRTIAFDRRGFGRSDQPWTGNDYDTFADDIAQLIEHLDLKEVTLVGFSMGGGDVARYIARHGSARVAGLVLLGAVTPLFGQKPDYPQGVPLDVFARFKTELLKDRAQFISDFNAPFYGINKGQVVSQGVQTQTLQIALLASLKATVDCVTAFAETDFRPDMAKIDVPTLVIHGDGDQIVPFETTGKVAAELIKGAELKVYKDAPHGFAVTHAQQLNEDLLAFLKR
notes: expressed as in Cheeseman et al. 2004
Question: With B1 as the molecule, how does the Km [4] read?
Answer: 2.8 ± 0.4 mM

Question: And the Vmax [4]?
Answer: 143 µmol/min/mg

Question: And the Vmax/Km [4]?
Answer: 51000 µL/min/mg

B2: Pseudomonas fluorescens aryl esterase (PFE) variant Leu29Pro (parent SEQ ID NO:3) (Pseudomonas fluorescens; L30P) (protein)
chain: MSTFVAKDGTQIYFKDWGSGKPVLFSHGWPLDADMWEYQMEYLSSRGYRTIAFDRRGFGRSDQPWTGNDYDTFADDIAQLIEHLDLKEVTLVGFSMGGGDVARYIARHGSARVAGLVLLGAVTPLFGQKPDYPQGVPLDVFARFKTELLKDRAQFISDFNAPFYGINKGQVVSQGVQTQTLQIALLASLKATVDCVTAFAETDFRPDMAKIDVPTLVIHGDGDQIVPFETTGKVAAELIKGAELKVYKDAPHGFAVTHAQQLNEDLLAFLKR
notes: as for B1
Question: Which Km [5] does the source give for B2 here?
Answer: 8.9 ± 1.1 mM

Question: And the Vmax [5]?
Answer: 2.8 µmol/min/mg

Question: And the Vmax/Km [5]?
Answer: 310 µL/min/mg

Reference: patent publication US7384787B2, “Increasing perhydrolase activity in esterases and/or lipases” (Regents of the University of Minnesota, priority 2005, dated 2008)
